Source: ChEMBL document CHEMBL6127079, “Design and synthesis of spiro[pyrrolidine-3,3'-quinoline]-2,2'-dione derivatives as novel antifungal agents targeting chitin synthase” (Eur J Med Chem, 2024)
In brackets after ≈: the same amount, converted by molar mass.

How the values were obtained:
Aspergillus fumigatus [1] = assay: Antifungal activity against fluconazole-resistant Aspergillus fumigatus GIMCC 3.19 assessed as inhibition of fungal growth incubated for 24 to 72 hrs; type: functional; details: time 24-72 hrs
Cryptococcus neoformans [2] = assay: Antifungal activity against drug-resistant Cryptococcus neoformans ATCC 32719 assessed as inhibition of cell wall synthesis in presence of sorbitol incubated for 24 hrs; type: functional
Candida albicans [3] = assay: Antifungal activity against fluconazole-resistant Candida albicans ATCC 76615 assessed as inhibition of fungal growth incubated for 24 to 72 hrs; type: functional; details: time 24-72 hrs
Candida albicans [4] = assay: Synergistic antifungal activity against Candida albicans ATCC 76615 assessed as fractional inhibitory concentration index in presence of Polyoxin B incubated for 24 hrs by half broth dilution based checkerboard method; type: functional
Aspergillus fumigatus [5] = assay: Antifungal activity against Aspergillus fumigatus GIMCC 3.19 assessed as inhibition of growth incubated for 24 hrs by two-fold serial dilution method; type: functional
Aspergillus fumigatus [6] = assay: Antifungal activity against Aspergillus fumigatus GIMCC 3.19 assessed as Polyoxin B MIC incubated for 24 hrs in presence of fluconazole by half broth dilution based checkerboard method; type: functional
Aspergillus flavus [7] = assay: Antifungal activity against fluconazole-resistant Aspergillus flavus ATCC 16870 assessed as inhibition of fungal growth incubated for 24 to 72 hrs; type: functional; details: time 24-72 hrs
Candida albicans [8] = assay: Antifungal activity against micafungin-resistant Candida albicans ATCC 76615 assessed as inhibition of fungal growth incubated for 24 to 72 hrs; type: functional; details: time 24-72 hrs
Candida albicans [9] = assay: Antifungal activity against Candida albicans ATCC 76615 assessed as inhibition of growth incubated for 24 hrs by two-fold serial dilution method; type: functional
Cryptococcus neoformans [10] = assay: Antifungal activity against Cryptococcus neoformans ATCC 32719 assessed as Polyoxin B MIC incubated for 24 hrs in presence of fluconazole by half broth dilution based checkerboard method; type: functional
[11] = Inhibition of chitin synthase extracted from Candida tropicalis ATCC 750 using UDP-GlcNAc as substrate assessed as inhibition rate by TMB based microplate analyzer relative to control
Cryptococcus neoformans [12] = assay: Synergistic antifungal activity against Cryptococcus neoformans ATCC 32719 assessed as fractional inhibitory concentration index in presence of fluconazole incubated for 24 hrs by half broth dilution based checkerboard method; type: functional
Aspergillus fumigatus [13] = assay: Antifungal activity against Aspergillus fumigatus GIMCC 3.19 assessed as fluconazole MIC incubated for 24 hrs in presence of fluconazole by half broth dilution based checkerboard method; type: functional
Cryptococcus neoformans [14] = assay: Synergistic antifungal activity against Cryptococcus neoformans ATCC 32719 assessed as fractional inhibitory concentration index in presence of Polyoxin B incubated for 24 hrs by half broth dilution based checkerboard method; type: functional
Candida albicans [15] = assay: Synergistic antifungal activity against Candida albicans ATCC 76615 assessed as fractional inhibitory concentration index in presence of fluconazole incubated for 24 hrs by half broth dilution based checkerboard method; type: functional
Candida albicans [16] = assay: Antifungal activity against Candida albicans ATCC 76615 incubated for 24 hrs by half broth dilution based checkerboard method; type: functional
Aspergillus fumigatus [17] = assay: Antifungal activity against drug-resistant Aspergillus fumigatus GIMCC 3.19 assessed as inhibition of cell wall synthesis in presence of sorbitol incubated for 24 hrs; type: functional
Candida albicans [18] = assay: Antifungal activity against Candida albicans ATCC 76615 assessed as fluconazole MIC incubated for 24 hrs in presence of fluconazole by half broth dilution based checkerboard method; type: functional
Cryptococcus neoformans [19] = assay: Antifungal activity against fluconazole-resistant Cryptococcus neoformans ATCC 32719 assessed as inhibition of fungal growth incubated for 24 to 72 hrs; type: functional; details: time 24-72 hrs
Candida albicans [20] = assay: Antifungal activity against Candida albicans ATCC 76615 assessed as Polyoxin B MIC incubated for 24 hrs in presence of fluconazole by half broth dilution based checkerboard method; type: functional
Aspergillus flavus [21] = assay: Synergistic antifungal activity against Aspergillus flavus ATCC 16870 assessed as fractional inhibitory concentration index in presence of Polyoxin B incubated for 24 hrs by half broth dilution based checkerboard method; type: functional
Cryptococcus neoformans [22] = assay: Antifungal activity against Cryptococcus neoformans ATCC 32719 incubated for 24 hrs by half broth dilution based checkerboard method; type: functional
Aspergillus fumigatus [23] = assay: Synergistic antifungal activity against Aspergillus fumigatus GIMCC 3.19 assessed as fractional inhibitory concentration index in presence of Polyoxin B incubated for 24 hrs by half broth dilution based checkerboard method; type: functional
Aspergillus fumigatus [24] = assay: Antifungal activity against Aspergillus fumigatus GIMCC 3.19 incubated for 24 hrs by half broth dilution based checkerboard method; type: functional
Aspergillus flavus [25] = assay: Antifungal activity against Aspergillus flavus ATCC 16870 assessed as Polyoxin B MIC incubated for 24 hrs in presence of fluconazole by half broth dilution based checkerboard method; type: functional
Aspergillus flavus [26] = assay: Antifungal activity against Aspergillus flavus ATCC 16870 assessed as fluconazole MIC incubated for 24 hrs in presence of fluconazole by half broth dilution based checkerboard method; type: functional
Aspergillus flavus [27] = assay: Antifungal activity against Aspergillus flavus ATCC 16870 assessed as inhibition of growth incubated for 24 hrs by two-fold serial dilution method; type: functional
Cryptococcus neoformans [28] = assay: Antifungal activity against Cryptococcus neoformans ATCC 32719 assessed as fluconazole MIC incubated for 24 hrs in presence of fluconazole by half broth dilution based checkerboard method; type: functional
Aspergillus flavus [29] = assay: Synergistic antifungal activity against Aspergillus flavus ATCC 16870 assessed as fractional inhibitory concentration index in presence of fluconazole incubated for 24 hrs by half broth dilution based checkerboard method; type: functional
Aspergillus fumigatus [30] = assay: Synergistic antifungal activity against Aspergillus fumigatus GIMCC 3.19 assessed as fractional inhibitory concentration index in presence of fluconazole incubated for 24 hrs by half broth dilution based checkerboard method; type: functional
Cryptococcus neoformans [31] = assay: Antifungal activity against Cryptococcus neoformans ATCC 32719 assessed as inhibition of growth incubated for 24 hrs by two-fold serial dilution method; type: functional
Candida tropicalis = assay: Inhibition of chitin synthase extracted from Candida tropicalis ATCC 750 using UDP-GlcNAc as substrate assessed as inhibition rate at 300 ug/ml by TMB based microplate analyzer relative to control; details: dose 300.0 µg/ml
Candida albicans [32] = assay: Antifungal activity against drug-resistant Candida albicans ATCC 76615 assessed as inhibition of cell wall synthesis in presence of sorbitol incubated for 24 hrs; type: functional
Aspergillus flavus [33] = assay: Antifungal activity against Aspergillus flavus ATCC 16870 incubated for 24 hrs by half broth dilution based checkerboard method; type: functional
Aspergillus flavus [34] = assay: Antifungal activity against drug-resistant Aspergillus flavus ATCC 16870 assessed as inhibition of cell wall synthesis in presence of sorbitol incubated for 24 hrs; type: functional

In the case of `O=C(/C=C/C(=O)Nc1ccc2c(c1)NC(=O)C1(CCNC1=O)C2)Nc1ccc(Br)cc1` (racemic), the MIC (Aspergillus fumigatus [1]) is reported as 64 µg/mL (≈ 132 µM), the MIC (Cryptococcus neoformans [2]) is reported as 256 µg/mL and the MIC (Candida albicans [3]) is reported as 64 µg/mL (≈ 132 µM). For the same compound, the “fractional inhibitory concentration index (FICI)” value (Candida albicans [4]) was 0.75, the MIC (Aspergillus fumigatus [5]) was 32 µg/mL (≈ 66.2 µM) and the MIC (Aspergillus fumigatus [6]) was 16 µg/mL. The MIC (Aspergillus flavus [7]) was 64 µg/mL (≈ 132 µM), the MIC (Candida albicans [8]) was 32 µg/mL (≈ 66.2 µM) and the MIC (Candida albicans [9]) was 16 µg/mL (≈ 33.1 µM). The MIC (Cryptococcus neoformans [10]) was 4 µg/mL, the IC50 [11] was 179 µM and the “fractional inhibitory concentration index (FICI)” value (Cryptococcus neoformans [12]) was 1. The MIC (Aspergillus fumigatus [13]) was 2 µg/mL, the “fractional inhibitory concentration index (FICI)” value (Cryptococcus neoformans [14]) was 1 and the “fractional inhibitory concentration index (FICI)” value (Candida albicans [15]) was 0.75. For the same compound, the MIC (Candida albicans [16]) was 4 µg/mL, the MIC (Aspergillus fumigatus [17]) was 256 µg/mL and the MIC (Candida albicans [18]) was 4 µg/mL. For the same compound, the MIC (Cryptococcus neoformans [19]) was 32 µg/mL (≈ 66.2 µM), the MIC (Candida albicans [20]) was 8 µg/mL and the “fractional inhibitory concentration index (FICI)” value (Aspergillus flavus [21]) was 1.5. For the same compound, the MIC (Cryptococcus neoformans [22]) was 4 µg/mL, the “fractional inhibitory concentration index (FICI)” value (Aspergillus fumigatus [23]) was 0.75 and the MIC (Aspergillus fumigatus [24]) was 8 µg/mL. The MIC (Aspergillus flavus [25]) was 8 µg/mL, the MIC (Aspergillus flavus [26]) was 4 µg/mL and the MIC (Aspergillus flavus [27]) was 16 µg/mL (≈ 33.1 µM). The MIC (Cryptococcus neoformans [28]) was 4 µg/mL, the “fractional inhibitory concentration index (FICI)” value (Aspergillus flavus [29]) was 1.5 and the “fractional inhibitory concentration index (FICI)” value (Aspergillus fumigatus [30]) was 0.75. It also gave an MIC (Cryptococcus neoformans [31]) of 16 µg/mL (≈ 33.1 µM), an inhibition (Candida tropicalis) of 72.7% and an MIC (Candida albicans [32]) of 128 µg/mL. It also gave an MIC (Aspergillus flavus [33]) of 8 µg/mL.
`O=C(/C=C/C(=O)Nc1cccc2ccccc12)Nc1ccc2c(c1)NC(=O)C1(CCNC1=O)C2` (racemic) gave an MIC (Aspergillus fumigatus [1]) of 64 µg/mL (≈ 141 µM), an MIC (Cryptococcus neoformans [2]) of 128 µg/mL and an MIC (Candida albicans [3]) of 32 µg/mL (≈ 70.4 µM). The “fractional inhibitory concentration index (FICI)” value (Candida albicans [4]) was 1.25, the MIC (Aspergillus fumigatus [5]) was 8 µg/mL (≈ 17.6 µM) and the MIC (Aspergillus fumigatus [6]) was 2 µg/mL. It also gave an MIC (Aspergillus flavus [7]) of 32 µg/mL (≈ 70.4 µM), an MIC (Candida albicans [8]) of 32 µg/mL (≈ 70.4 µM) and an MIC (Candida albicans [9]) of 16 µg/mL (≈ 35.2 µM). For the same compound, the MIC (Cryptococcus neoformans [10]) was 2 µg/mL, the IC50 [11] was 131 µM and the MIC (Aspergillus flavus [34]) was 64 µg/mL. The “fractional inhibitory concentration index (FICI)” value (Cryptococcus neoformans [12]) was 0.5, the MIC (Aspergillus fumigatus [13]) was 2 µg/mL and the “fractional inhibitory concentration index (FICI)” value (Cryptococcus neoformans [14]) was 0.5. For the same compound, the “fractional inhibitory concentration index (FICI)” value (Candida albicans [15]) was 1.125, the MIC (Candida albicans [16]) was 4 µg/mL and the MIC (Aspergillus fumigatus [17]) was 128 µg/mL. The MIC (Candida albicans [18]) was 8 µg/mL, the MIC (Cryptococcus neoformans [19]) was 32 µg/mL (≈ 70.4 µM) and the MIC (Candida albicans [20]) was 8 µg/mL. For the same compound, the “fractional inhibitory concentration index (FICI)” value (Aspergillus flavus [21]) was 0.75, the MIC (Cryptococcus neoformans [22]) was 2 µg/mL and the “fractional inhibitory concentration index (FICI)” value (Aspergillus fumigatus [23]) was 1. It also gave an MIC (Aspergillus fumigatus [24]) of 2 µg/mL, an MIC (Aspergillus flavus [25]) of 2 µg/mL and an MIC (Aspergillus flavus [26]) of 2 µg/mL. For the same compound, the MIC (Aspergillus flavus [27]) was 8 µg/mL (≈ 17.6 µM), the MIC (Cryptococcus neoformans [28]) was 2 µg/mL and the “fractional inhibitory concentration index (FICI)” value (Aspergillus flavus [29]) was 0.75. The “fractional inhibitory concentration index (FICI)” value (Aspergillus fumigatus [30]) was 1, the MIC (Cryptococcus neoformans [31]) was 8 µg/mL (≈ 17.6 µM) and the inhibition (Candida tropicalis) was 79.5%. It also gave an MIC (Candida albicans [32]) of 256 µg/mL and an MIC (Aspergillus flavus [33]) of 2 µg/mL.
`Cc1ccc(NC(=O)/C=C/C(=O)Nc2ccc3c(c2)NC(=O)C2(CCNC2=O)C3)cc1` (racemic) showed an MIC (Aspergillus fumigatus [1]) of 32 µg/mL (≈ 76.5 µM), an MIC (Cryptococcus neoformans [2]) of 256 µg/mL and an MIC (Candida albicans [3]) of 64 µg/mL (≈ 153 µM). For the same compound, the “fractional inhibitory concentration index (FICI)” value (Candida albicans [4]) was 1, the MIC (Aspergillus fumigatus [5]) was 16 µg/mL (≈ 38.2 µM) and the MIC (Aspergillus fumigatus [6]) was 16 µg/mL. It also gave an MIC (Aspergillus flavus [7]) of 32 µg/mL (≈ 76.5 µM), an MIC (Candida albicans [8]) of 64 µg/mL (≈ 153 µM) and an MIC (Candida albicans [9]) of 16 µg/mL (≈ 38.2 µM). For the same compound, the MIC (Cryptococcus neoformans [10]) was 16 µg/mL, the IC50 [11] was 201 µM and the MIC (Aspergillus flavus [34]) was 64 µg/mL. The “fractional inhibitory concentration index (FICI)” value (Cryptococcus neoformans [12]) was 1.5, the MIC (Aspergillus fumigatus [13]) was 4 µg/mL and the “fractional inhibitory concentration index (FICI)” value (Cryptococcus neoformans [14]) was 1.5. For the same compound, the “fractional inhibitory concentration index (FICI)” value (Candida albicans [15]) was 1, the MIC (Candida albicans [16]) was 8 µg/mL and the MIC (Aspergillus fumigatus [17]) was 128 µg/mL. It also gave an MIC (Candida albicans [18]) of 4 µg/mL, an MIC (Cryptococcus neoformans [19]) of 64 µg/mL (≈ 153 µM) and an MIC (Candida albicans [20]) of 8 µg/mL. The “fractional inhibitory concentration index (FICI)” value (Aspergillus flavus [21]) was 2, the MIC (Cryptococcus neoformans [22]) was 16 µg/mL and the “fractional inhibitory concentration index (FICI)” value (Aspergillus fumigatus [23]) was 1.5. For the same compound, the MIC (Aspergillus fumigatus [24]) was 8 µg/mL, the MIC (Aspergillus flavus [25]) was 4 µg/mL and the MIC (Aspergillus flavus [26]) was 4 µg/mL. For the same compound, the MIC (Aspergillus flavus [27]) was 8 µg/mL (≈ 19.1 µM), the MIC (Cryptococcus neoformans [28]) was 8 µg/mL and the “fractional inhibitory concentration index (FICI)” value (Aspergillus flavus [29]) was 2. The “fractional inhibitory concentration index (FICI)” value (Aspergillus fumigatus [30]) was 1.5, the MIC (Cryptococcus neoformans [31]) was 32 µg/mL (≈ 76.5 µM) and the inhibition (Candida tropicalis) was 71.4%. The MIC (Candida albicans [32]) was 128 µg/mL and the MIC (Aspergillus flavus [33]) was 4 µg/mL.
